PMC10439028, “SGLT5 is the renal transporter for 1,5-anhydroglucitol, a major player in two rare forms of neutropenia” (Cellular and Molecular Life Sciences: CMLS, 2023)

How the values were obtained:
hSGLT5 Arg401His [1] = target: T1, hSGLT5 Arg401His (Homo sapiens, UniProt A0PJK1, R401H); assay: 1,5-AG uptake in HEK293T cells overexpressing SGLT5 variant Arg401His; type: cell-based
T1 construct: pUB83-hSGLT5-iso2 as well as the various SGLT5 mutants obtained were used to transduce HEK293T cells; expressed in transfected cells; host or cells: HEK293T, lentiviral transduction (pUB83)
T1 sequence (A0PJK1 1-596 R401H): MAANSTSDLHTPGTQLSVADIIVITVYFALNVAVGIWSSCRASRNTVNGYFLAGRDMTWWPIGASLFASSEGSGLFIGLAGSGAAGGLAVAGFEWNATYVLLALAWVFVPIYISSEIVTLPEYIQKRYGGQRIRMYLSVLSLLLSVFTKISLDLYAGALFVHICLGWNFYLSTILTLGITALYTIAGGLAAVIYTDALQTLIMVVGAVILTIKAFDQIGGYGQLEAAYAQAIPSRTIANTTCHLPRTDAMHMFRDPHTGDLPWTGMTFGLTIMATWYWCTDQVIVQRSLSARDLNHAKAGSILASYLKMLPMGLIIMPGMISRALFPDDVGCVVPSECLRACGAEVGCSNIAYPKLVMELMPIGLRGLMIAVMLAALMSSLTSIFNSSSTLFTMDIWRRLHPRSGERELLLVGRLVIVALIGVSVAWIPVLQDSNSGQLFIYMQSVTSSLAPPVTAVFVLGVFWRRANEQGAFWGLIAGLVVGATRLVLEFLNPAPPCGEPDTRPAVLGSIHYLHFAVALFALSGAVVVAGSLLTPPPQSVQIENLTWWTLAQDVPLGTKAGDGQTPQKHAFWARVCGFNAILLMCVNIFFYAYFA
Description: For a typical transporter experiment we proceeded as follows. […] To minimize cell loss during the various washing steps in the radioactive uptake experiments, the wells where the cells were seeded were previously coated with poly- D-lysine, which improved their adhesion to the plastic surface of the wells. For this, each well of the 24-well plates was treated with 200 µl of a 0.01% poly-L-lysine solution for 10 min, washed 3 times with 1 ml of sterilized water and left to dry for 2 h. Only then could the 24-well plates be seeded with the appropriate cell lines and cultured overnight at 37 °C in 5% CO2.
On day two, the radioactive uptake assay could be performed. The cell culture media was removed by aspiration and cells were incubated for 20 min at 37 °C and 5% CO2 with a basal medium (10 mM HEPES, pH 7.4, 1 mM CaCl2, 1 mM MgCl2, 2 mM KCl) containing 140 mM choline chloride to deplete intracellular Na^2+ ions. […]
Once the uptake medium was added to the cells, the plates were incubated at 37 °C in 5% CO2 during the required time. […] In each experiment, the transport activities were calculated after subtracting a “blank” value, corresponding to the radioactivity in the appropriate control cells (HEK293T cells that were stably or transiently transfected with one of the parent plasmids pEF6/MycHisA, pEF6HisB, pUB82 or pUB83 with no inserted cDNA) that were analyzed in parallel. […]

hSGLT5 Arg401His [2] = target: T1, hSGLT5 Arg401His; assay: Inhibition of 10 µM 1,5-AG transport by SGLT5 variant Arg401His; type: cell-based; conditions: Fig. 5D
Description: The transport experiments to study the specificity of SGLT4 or SGLT5, were performed in the presence of 10 µM U-[^14C + ^12C]-mannose (for SGLT4) or 2-[^3H + ^1H]-1,5-AG (for SGLT5) and increasing concentrations of various sugars tested. The transport experiments to study the inhibition of empagliflozin, dapagliflozin or remogliflozin, on the transport of 1,5-AG by SGLT5 or its variants were performed in the presence of 10 µM 2-[^3H + ^1H]-1,5-AG and increasing concentrations of the various gliflozins tested.
SGLT5 mutants were created using the quick-change site directed mutagenesis method that enables effective mutagenesis without subcloning of the amplified PCR products. Complementary primer pairs carrying the desired replacements (Supplementary Table 3) were designed using an online tool (https://www.agilent.com/store/primerDesignProgram.jsp). The PCR protocol was carried out following the manufacturer instructions regarding the KOD HOT Start polymerase kit (TOYOBO™, Novagen). The amplified DNA was cleaned-up from the reactions constituents using the GeneJET PCR purification Kit (Thermo Scientific™) and the size of the DNA fragment were verified by DNA agarose-gel electrophoresis. […]

Row | SMILES | Vmax (hSGLT5 Arg401His [1]) [pmol/min/10^5cells] | reduction of transport efficiency compared to SGLT5 (hSGLT5 Arg401His [1]) | effect of mutation on concentration of empagliflozin needed to inhibit SGLT5 (hSGLT5 Arg401His [2])
1 | OC[C@H]1OC[C@H](O)[C@@H](O)[C@@H]1O [1,5-AG, 1,5-anhydroglucitol] | 11.4 ± 0.2 | twofold | 
2 | OC[C@H]1O[C@@H](c2ccc(Cl)c(Cc3ccc(O[C@H]4CCOC4)cc3)c2)[C@H](O)[C@@H](O)[C@@H]1O [empagliflozin] |  |  | did not affect significantly
